This note sets out measurements from ChEMBL document CHEMBL4483862, “Open-source discovery of chemical leads for next-generation chemoprotective antimalarials” (2018).

The experiment concerns Plasmodium berghei. The experiment in a line: Luciferase/luciferin-expressing antifolate-resistant parasites were used to infect a culture of HepG2 cells that were pre-incubated with compounds. Infected hepatocytes emit light due to the luciferase reaction. Assay results are presented as the percent inhibition of light emission compared to control. […]. Type of experiment: functional. Conditions: sporozoite; for IC90: read-out: LUCIFERASE INFECTION ASSAY - IC90.

The structures appear in SMILES notation.

With `Nc1nc2ccccc2n1Cc1ccc(Cl)cc1`, the IC90 worked out at 5.46 µM. Further, the IC50 (HEPG2TOX_HILL_SLOPE 1, HEPG2TOX_R_SQUARED 0.963, PBLUC_HILL_SLOPE 11.6, PBLUC_R_SQUARED 0.65, read-out: LUCIFERASE INFECTION ASSAY - IC50) came out at 4.52 µM.

`COc1nc(-c2ccccc2)cc(-c2ccc3c(c2)OCO3)c1C#N`: the IC90 turned out to be 5.77 µM. For the setting “HEPG2TOX_HILL_SLOPE 1.05, HEPG2TOX_R_SQUARED 0.733, PBLUC_HILL_SLOPE 1.42, PBLUC_R_SQUARED 0.508, read-out: LUCIFERASE INFECTION ASSAY - IC50”, the IC50 was 1.23 µM.

On to `CC(C)(C)c1ccc(C(=O)Nc2ccc(Oc3cccnc3)nc2)cc1`, for which the IC90 is more than 9.5 µM. The IC50 (HEPG2TOX_HILL_SLOPE 1.03, HEPG2TOX_R_SQUARED 0.91, PBLUC_HILL_SLOPE 1.13, PBLUC_R_SQUARED 0.427, read-out: LUCIFERASE INFECTION ASSAY - IC50) turned out to be 3.06 µM.

As for `CCc1nnc(S)n1/N=C/c1c(C)nn(-c2ccccc2)c1Cl`, the IC90 is 0.704 µM. In addition, the IC50 (HEPG2TOX_HILL_SLOPE 1.03, HEPG2TOX_R_SQUARED 0.933, PBLUC_HILL_SLOPE 1.45, PBLUC_R_SQUARED 0.745, read-out: LUCIFERASE INFECTION ASSAY - IC50) was 0.155 µM.

Regarding `CNc1nnc(Sc2nc(CN3CCCCC3)nc3scc(-c4ccccc4)c23)s1`, the IC90 stood at 3.67 µM. Further, the IC50 (HEPG2TOX_HILL_SLOPE 0.991, HEPG2TOX_R_SQUARED 0.829, PBLUC_HILL_SLOPE 15.5, PBLUC_R_SQUARED 0.389, read-out: LUCIFERASE INFECTION ASSAY - IC50) amounted to 3.19 µM.

In the case of `OCc1ccc(-c2cnc3cnc(/C=C/c4ccccc4)cn23)cc1`, the IC90 is 0.659 µM. For the same molecule, where the note is “HEPG2TOX_HILL_SLOPE 0.99, HEPG2TOX_R_SQUARED 0.698, PBLUC_HILL_SLOPE 2.37, PBLUC_R_SQUARED 0.796, read-out: LUCIFERASE INFECTION ASSAY - IC50”, the IC50 worked out at 0.261 µM.

On to `O=C(CN1CCC(Nc2ncnc3cc(Cl)ccc23)CC1)Nc1ccccc1`, for which the IC90 turned out to be 5.83 µM. Further, for the setting “HEPG2TOX_HILL_SLOPE 1.03, HEPG2TOX_R_SQUARED 0.872, PBLUC_HILL_SLOPE 1.97, PBLUC_R_SQUARED 0.801, read-out: LUCIFERASE INFECTION ASSAY - IC50”, the IC50 was found to be 1.91 µM.

Consider `COc1ccc2cc(CNc3ncnc4n[nH]cc34)ccc2c1`, for which the IC90 was 4.29 µM. For the same molecule, under “HEPG2TOX_HILL_SLOPE 1.04, HEPG2TOX_R_SQUARED 0.97, PBLUC_HILL_SLOPE 1.64, PBLUC_R_SQUARED 0.72, read-out: LUCIFERASE INFECTION ASSAY - IC50”, the IC50 came out at 1.13 µM.

Regarding `Cc1cc(=O)oc2cc(Oc3nc(CN4CCOCC4)nc4sc5c(c34)CCCC5)c(Cl)cc12`, the IC90 is more than 10 µM. Also, the IC50 (HEPG2TOX_HILL_SLOPE 1.03, HEPG2TOX_R_SQUARED 0.724, read-out: LUCIFERASE INFECTION ASSAY - IC50) was more than 10 µM.

Turning to `COc1ccc(-c2cnc3cnc(-c4cnn(C)c4)cn23)cc1`, the IC90 is more than 10.8 µM. Moreover, where the note is “HEPG2TOX_HILL_SLOPE 0.995, HEPG2TOX_R_SQUARED 0.66, PBLUC_HILL_SLOPE 1.64, PBLUC_R_SQUARED 0.772, read-out: LUCIFERASE INFECTION ASSAY - IC50”, the IC50 was found to be 3.01 µM.

On to `Cc1cc(C(=O)NN2Cc3ccccc3C2=N)c(C)n1-c1ccccc1`, for which the IC90 is more than 10 µM. Also, the IC50 (HEPG2TOX_HILL_SLOPE 1.03, HEPG2TOX_R_SQUARED 0.677, read-out: LUCIFERASE INFECTION ASSAY - IC50) was more than 10 µM.

For the molecule `Cc1ccc2c(Cl)cc(Cl)c(OC(=O)C3CC3)c2n1`, the IC90 is 6.06 µM. The IC50 (HEPG2TOX_HILL_SLOPE 1.04, HEPG2TOX_R_SQUARED 0.959, PBLUC_HILL_SLOPE 1.84, PBLUC_R_SQUARED 0.861, read-out: LUCIFERASE INFECTION ASSAY - IC50) came to 1.84 µM.

Consider `CN(Cc1cnn(Cc2ccccc2)c1)C(=O)c1cccc(S(=O)(=O)N2CCc3ccccc32)c1`, for which the IC90 turned out to be 9.38 µM. For the same molecule, the IC50 (HEPG2TOX_HILL_SLOPE 1.04, HEPG2TOX_R_SQUARED 0.954, PBLUC_HILL_SLOPE 3.29, PBLUC_R_SQUARED 0.175, read-out: LUCIFERASE INFECTION ASSAY - IC50) came to 4.81 µM.

Consider `Cn1ncc(C#N)c1NC(=O)c1cccc(Oc2ccccc2)c1`, for which the IC90 is 8.69 µM. The IC50 (HEPG2TOX_HILL_SLOPE 1.03, HEPG2TOX_R_SQUARED 0.84, PBLUC_HILL_SLOPE 1.64, 1.43, PBLUC_R_SQUARED 0.588, 0.656, read-out: LUCIFERASE INFECTION ASSAY - IC50) stood at 2.85 µM.

For the molecule `CC(C)(C)c1cc2nc(C(F)(F)F)cc(SCCOC(=O)Nc3cccc(Cl)c3)n2n1`, the IC90 was more than 6.98 µM. Moreover, where the note is “HEPG2TOX_HILL_SLOPE 1.03, HEPG2TOX_R_SQUARED 0.0682, read-out: LUCIFERASE INFECTION ASSAY - IC50”, the IC50 is more than 6.98 µM.

In the case of `COc1ccc(-n2c(C)cc(C(=O)Cn3ncc(Cl)c(Cl)c3=O)c2C)cc1`, the IC90 was more than 10 µM. Besides, where the note is “HEPG2TOX_HILL_SLOPE 0.989, HEPG2TOX_R_SQUARED 0.688, read-out: LUCIFERASE INFECTION ASSAY - IC50”, the IC50 is more than 10 µM.

As to `CCCCNC(=O)c1c(NC(=O)c2cccc(Cl)c2Cl)nc2ccc(C)cn12`, the concentration for an effect of 90% (IC90) stood at 1.27 µM. Also, the IC50 (HEPG2TOX_HILL_SLOPE 1.01, HEPG2TOX_R_SQUARED 0.774, PBLUC_HILL_SLOPE 4.09, PBLUC_R_SQUARED 0.588, read-out: LUCIFERASE INFECTION ASSAY - IC50) amounted to 0.743 µM.

For the molecule `Nn1c(SCC(=O)c2c[nH]c3ccccc23)nnc1C(F)(F)F`, the IC90 amounted to 8.78 µM. Also, for the setting “HEPG2TOX_HILL_SLOPE 1.03, HEPG2TOX_R_SQUARED 0.976, PBLUC_HILL_SLOPE 0.599, PBLUC_R_SQUARED 0.712, read-out: LUCIFERASE INFECTION ASSAY - IC50”, the IC50 was 0.224 µM.

For the molecule `OCc1cccc(-c2ccc3ncc(-c4cccs4)n3n2)c1`, the IC90 worked out at 4.05 µM. For the same molecule, the IC50 (HEPG2TOX_HILL_SLOPE 1.03, HEPG2TOX_R_SQUARED 0.934, PBLUC_HILL_SLOPE 12.1, PBLUC_R_SQUARED 0.638, read-out: LUCIFERASE INFECTION ASSAY - IC50) was found to be 3.38 µM.

With `COc1cccc(-c2ccc3ncc(-c4ccc(NC(C)=O)cc4)n3n2)c1`, the IC90 came out at 3.39 µM. For the same molecule, the IC50 (HEPG2TOX_HILL_SLOPE 0.992, HEPG2TOX_R_SQUARED 0.946, PBLUC_HILL_SLOPE 0.779, PBLUC_R_SQUARED 0.716, read-out: LUCIFERASE INFECTION ASSAY - IC50) is 0.202 µM.

As to `CN(C)CCNC(=O)c1cccc(-c2cnc3ccc(-c4cccc(CO)c4)nn23)c1`, the IC90 was 1.58 µM. Also, under “HEPG2TOX_HILL_SLOPE 0.999, HEPG2TOX_R_SQUARED 0.943, PBLUC_HILL_SLOPE 3.71, PBLUC_R_SQUARED 0.586, read-out: LUCIFERASE INFECTION ASSAY - IC50”, the IC50 was found to be 0.873 µM.

In the case of `Cc1nc(/C=C/C(=O)Nc2nc3ccccc3[nH]2)cs1`, the IC90 was 1.37 µM. The IC50 (HEPG2TOX_HILL_SLOPE 0.99, HEPG2TOX_R_SQUARED 0.611, PBLUC_HILL_SLOPE 0.644, PBLUC_R_SQUARED 0.42, read-out: LUCIFERASE INFECTION ASSAY - IC50) is 0.0451 µM.

Turning to `COc1cccc(Nc2nccc3[nH]c(-c4cc(OC)cc(OC)c4)cc23)c1`, the IC90 came to 1.74 µM. The IC50 (HEPG2TOX_HILL_SLOPE 0.988, HEPG2TOX_R_SQUARED 0.934, PBLUC_HILL_SLOPE 2.38, PBLUC_R_SQUARED 0.617, read-out: LUCIFERASE INFECTION ASSAY - IC50) stood at 0.69 µM.

For `O=C(NC1CCCc2ccccc21)c1ccc2c(c1)S(=O)(=O)c1ccccc1C2=O` (stereo not drawn), the IC90 was more than 10 µM. In addition, for the setting “HEPG2TOX_HILL_SLOPE 1, HEPG2TOX_R_SQUARED 0.0756, read-out: LUCIFERASE INFECTION ASSAY - IC50”, the IC50 was more than 10 µM.

As for `O=c1c2cc(Cl)cc(Cl)c2nc(-c2cccc(C(F)(F)F)c2)n1O`, the IC90 is more than 8.8 µM. The IC50 (HEPG2TOX_HILL_SLOPE 1.01, HEPG2TOX_R_SQUARED 0.454, PBLUC_HILL_SLOPE 14.5, PBLUC_R_SQUARED 0.382, read-out: LUCIFERASE INFECTION ASSAY - IC50) turned out to be 8.11 µM.

Take `Nc1nccnc1C(=O)Nc1nc2cc3c(cc2s1)OCCO3`: the IC90 was 0.434 µM. Besides, the IC50 (HEPG2TOX_HILL_SLOPE 1.04, HEPG2TOX_R_SQUARED 0.527, PBLUC_HILL_SLOPE 12.4, 0.362, PBLUC_R_SQUARED 0.835, 0.759, read-out: LUCIFERASE INFECTION ASSAY - IC50) was 0.197 µM.

Consider `COc1ccc(C(=O)Nc2cccc(/C=C3\S/C(=N\C4CCCC4)NC3=O)c2)cc1`, for which the IC90 is more than 10 µM. Also, the IC50 (HEPG2TOX_HILL_SLOPE 1.03, HEPG2TOX_R_SQUARED 0.894, PBLUC_HILL_SLOPE 3.32, PBLUC_R_SQUARED 0.257, read-out: LUCIFERASE INFECTION ASSAY - IC50) came to 5.96 µM.

`c1ccn2c(Sc3ncnc4ccsc34)nnc2c1`: the IC90 is more than 10 µM. Further, the IC50 (HEPG2TOX_HILL_SLOPE 1.03, HEPG2TOX_R_SQUARED 0.779, PBLUC_HILL_SLOPE 16.5, PBLUC_R_SQUARED 0.198, read-out: LUCIFERASE INFECTION ASSAY - IC50) came out at 9.21 µM.

With `Cc1cccc(-[n+]2c(C)cc(C=C3Sc4ccc5ccccc5c4N3C)cc2C)c1`, the IC90 is 0.685 µM. Under “HEPG2TOX_HILL_SLOPE 1.04, HEPG2TOX_R_SQUARED 0.832, PBLUC_HILL_SLOPE 4.15, PBLUC_R_SQUARED 0.768, read-out: LUCIFERASE INFECTION ASSAY - IC50”, the IC50 was found to be 0.403 µM.

As a reminder, the IC50 is the concentration that gives 50% inhibition. As a reminder, the IC90 is the point of the concentration-response curve where the effect stands at 90%.
